How the values were obtained:
[1] = tested on: KRAS G12D mutant human pancreatic cancer cell HPAC; assay: 3D cell proliferation inhibition assay, HPAC; format: cell-based; details: 168 h, 7 days, CTG
Description: (§1) The inhibitory effects of the compounds on 3D cell proliferation were investigated on KRAS G12D mutant human lung cancer cell A427, KRAS G12D mutant human gastric cancer cell AGS, KRAS G12D mutant human metastatic pancreatic cancer cell AsPc-1, KRAS G12D mutant human pancreatic cancer cell Panc 04.03, KRAS G12D mutant human pancreatic cancer cell HPAC, KRAS G12V mutant human lung squamous cell carcinoma cell SW900, and KRAS WT human gastric cancer cell MKN1. The specific procedures were as follows:
(§2) 10 μL of each compound solution diluted in a gradient was added to corresponding wells of a 96-well low-adsorption microplate (PerkinElmer), so that the final concentrations of the test compounds in the reaction system were in a range of 10000-0.026 nM. The final concentration of DMSO was 0.2%. Then 90 µL of cells were correspondingly seeded into each well to achieve a cell density of 5×10^2 cells/well (the cell density of SW900 was 5×10^1 cells/well, and the cell density of MKN1 was 1×10^3 cells/well). In addition to test wells for the test compounds, both a DMSO control well and a medium control well were set, with the DMSO control well containing DMSO and cells and the medium well containing only a medium. After the sample loading, the 96-well low-adsorption microplate was incubated in an incubator at 37° C. with 5% carbon dioxide for 7 days. After 7 days, the microplate was taken out, and 100 μL of CTG reagent (Promega) was added to each well. The plate was incubated at room temperature for 60 min and read on a microplate reader EnVision by the chemiluminescence program. The inhibition rates of the compounds at each concentration were calculated using the formula for the percentage inhibition of cell proliferation: inhibition rate %=(mean value of DMSO control group−single concentration reading value of compound)/(mean value of DMSO control group−mean value of medium control group)×100. Then non-linear curve fittings for logarithmic concentration-inhibition rate were performed by GraphPad Prism 8, and the IC50 values of the compounds were obtained (Table 5).

[2] = tested on: KRAS G12D mutant human metastatic pancreatic cancer cell AsPc-1; assay: 3D cell proliferation inhibition assay, AsPc-1; format: cell-based; details: ASPC1, 168 h, AsPc-1, 7 days, CTG, numeric values
Description: as §1, §2

[3] = tested on: KRAS G12D mutant human lung cancer cell A427; assay: 3D cell proliferation inhibition assay, A427; format: cell-based; details: A-427, 168 h, A427, 7 days, CTG, class symbols
Description: as §1, §2

KRAS-G12D = molecular target: T1, KRAS-G12D (Homo sapiens, UniProt P01116, G12D); assay: KRAS-G12D degradation assay (Western Blot), A-427 cells; format: cell-based; details: A427 cells, 24 h, class symbols; for Dmax: A-427
T1 construct: endogenous in cells; host or cells: A-427 (ATCC), AGS, AsPc-1, Panc 04.03
Method in brief: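 Western blotting of lysates (5 μg protein) quantified KRAS against a β-actin reference after 24 h exposure to compound at final 0.03–3000 nM in 0.25% DMSO. Cells were A-427, AGS, AsPc-1 or Panc 04.03, all KRAS G12D, at 5×10^5/well. Degradation versus control yielded DC50 and Dmax.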

[4] = tested on: KRAS G12D mutant human gastric cancer cell AGS; assay: 3D cell proliferation inhibition assay, AGS; format: cell-based; details: 168 h, 7 days, CTG, class symbols
Method in brief: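 For this 7-day anchorage-independent assay, 5×10^2 cells per well were exposed to 10000–0.026 nM test compound with 0.2% DMSO at 37 °C. ATP-based luminescence (CTG) gave viability, and percent inhibition versus DMSO controls was curve-fitted to obtain IC50.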

[5] = molecular target: T2, Human KRAS G12D 6His-tagged (Homo sapiens, UniProt P01116, G12D); assay: KRAS-G12D/GTP binding assay (HTRF)
T2 construct: purchased PerkinElmer
Protocol: In this method, the inhibitory effects of the compounds on the binding of KRAS-G12D to GTP were assayed by a homogeneous time-resolved fluorescence (HTRF) technique using a KRAS-G12D/GTP binding assay kit (PerkinElmer).
The experimental procedures were as follows (refer to the kit instructions for detailed test methods): the compounds of the present disclosure were each firstly dissolved in DMSO at a concentration of 20 mM, and then diluted in an equal gradient with a buffer in the kit, so that the final concentrations of the test compounds in the reaction system were in a range of 0.02-5000 nM, and the final concentration of DMSO was 0.5%. 5 μL of each compound was incubated with 5 μL of 1× Human KRAS G12D 6His-tagged (PerkinElmer), 5 μL of 1×6His Eu Cryptate Antibody (PerkinElmer), and 5 μL of 1×GTP Red reagent (PerkinElmer) in a 384-well plate (Greiner) at 25° C. for 1 h. After the incubation was completed, the fluorescence intensity of each well was measured at the excitation wavelength of 337 nm and the emission wavelengths of 620 nm and 665 nm with an EnVision microplate reader (PerkinElmer) in the HTRF mode, and Ratio values were calculated using the formula: Ratio=(665 nm/620 nm)×[…]. The inhibition rates of the compounds at each concentration were calculated by comparing the fluorescence intensity ratio with that of the control group. Then non-linear curve fittings for logarithmic concentration-inhibition rate were performed using the GraphPad Prism 8 analysis software, and the IC50 values of the compounds were obtained (Table 2).

T2 sequence (P01116 1-188 isoform P01116-2 G12D): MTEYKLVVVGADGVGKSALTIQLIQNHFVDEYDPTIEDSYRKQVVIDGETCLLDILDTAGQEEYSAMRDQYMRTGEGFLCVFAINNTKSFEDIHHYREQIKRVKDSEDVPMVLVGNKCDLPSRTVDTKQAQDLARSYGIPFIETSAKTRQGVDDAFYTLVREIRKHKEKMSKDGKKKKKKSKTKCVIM
T1 sequence (P01116 1-188 isoform P01116-2 G12D): as above

Q: With `C#Cc1c(F)ccc2cc(O)cc(-c3ncc4c(N5CC6CCC(C5)N6)nc(OCC(CN5CCN(CC6CCC7(CC6)CCN(C(=O)c6ccc(OC)c(N8CCC(=O)NC8=O)c6)CC7)CC5)OC)nc4c3F)c12` (stereo not drawn) [Example 105, 1-(5-(9-((4-(3-((4-(3,8-diazabicyclo[3.2.1]octan-3-yl)-7-(8-ethynyl-7-fluoro-3-hydroxynaphthalen-1-yl)-8-fluoropyrido[4,3-d]pyrimidin-2-yl)oxy)-2-methoxypropyl)piperazin-1-yl)methyl)-3-azaspiro[5.5]undecane-3-carbonyl)-2-methoxyphenyl)dihydropyrimidine-2,4(1H,3H)-dione] as the molecule, how does the IC50 [1] read?
A: 12.7 nM

Q: What about the IC50 [2] of the same molecule?
A: 93.5 nM

Q: How did the IC50 [3] turn out when `Cc1ccc(C(=O)N2CCC3(CCC(CN4CCN(CC5(COc6nc(N7CC8CCC(C7)N8)c7cnc(-c8cccc9cccc(Cl)c89)c(F)c7n6)CC5)CC4)CC3)CC2)cc1N1CCC(=O)NC1=O` [Example 45, 1-(5-(9-((4-((1-(((4-(3,8-diazabicyclo[3.2.1]octan-3-yl)-7-(8-chloronaphthalen-1-yl)-8-fluoropyrido[4,3-d]pyrimidin-2-yl)oxy)methyl)cyclopropyl)methyl)piperazin-1-yl)methyl)-3-azaspiro[5.5]undecane-3-carbonyl)-2-methylphenyl)dihydropyrimidine-2,4(1H,3H)-dione] was run?
A: 50 to 100 nM

Q: What about the DC50 (KRAS-G12D) of the same molecule?
A: 1000 to 10000 nM

Q: And the Dmax (KRAS-G12D)?
A: < 30%

Q: What about the IC50 [4] of the same molecule?
A: 50 to 100 nM

Q: And the IC50 ([5]; class symbols)?
A: ≤ 50 nM

Q: With `C#Cc1c(F)ccc2cc(O)cc(-c3ncc4c(N5CC6CCC(C5)N6)nc(OCCN5CCN(CCC6CCC7(CC6)CCN(C(=O)c6ccc(Cl)c(N8CCC(=O)NC8=O)c6)CC7)CC5)nc4c3F)c12` [Example 61, 1-(5-(9-(2-(4-(2-((4-(3,8-diazabicyclo[3.2.1]octan-3-yl)-7-(8-ethynyl-7-fluoro-3-hydroxynaphthalen-1-yl)-8-fluoropyrido[4,3-d]pyrimidin-2-yl)oxy)ethyl)piperazin-1-yl)ethyl)-3-azaspiro[5.5]undecane-3-carbonyl)-2-chlorophenyl)dihydropyrimidine-2,4(1H,3H)-dione] as the molecule, how does the IC50 [3] read?
A: 100 to 500 nM

Q: What about the IC50 [4] of the same molecule?
A: ≤ 50 nM

Q: And the IC50 ([5]; numeric values)?
A: 21.1 nM

Q: Which results are given for `C#Cc1c(F)ccc2cc(O)cc(-c3ncc4c(N5CC6CCC(C5)N6)nc(OCC5(CN6CC7CC6CN7CC6CCC7(CC6)CCN(C(=O)c6ccc(Cl)c(N8CCC(=O)NC8=O)c6)CC7)CC5)nc4c3F)c12` (stereo not drawn) [Example 59, 1-(5-(9-((5-((1-(((4-(3,8-diazabicyclo[3.2.1]octan-3-yl)-7-(8-ethynyl-7-fluoro-3-hydroxynaphthalen-1-yl)-8-fluoropyrido[4,3-d]pyrimidin-2-yl)oxy)methyl)cyclopropyl)methyl)-2,5-diazabicyclo[2.2.1]heptan-2-yl)methyl)-3-azaspiro[5.5]undecane-3-carbonyl)-2-chlorophenyl)dihydropyrimidine-2,4(1H,3H)-dione]?
A: IC50 [3]: 100 to 500 nM; DC50 (KRAS-G12D): 1000 to 10000 nM; Dmax (KRAS-G12D): < 30%; IC50 [4]: ≤ 50 nM; IC50 ([5]; class symbols): ≤ 50 nM

Q: With `C#Cc1c(F)ccc2cc(O)cc(-c3ncc4c(N5CC6CCC(C5)N6)nc(OCC5(CN6CC(CN7CCC8(CC7)CCN(C(=O)c7ccc(OC)c(N9CCC(=O)NC9=O)c7)CC8)C6)CC5)nc4c3F)c12` [Example 40, 1-(5-(9-((1-((1-(((4-(3,8-diazabicyclo[3.2.1]octan-3-yl)-7-(8-ethynyl-7-fluoro-3-hydroxynaphthalen-1-yl)-8-fluoropyrido[4,3-d]pyrimidin-2-yl)oxy)methyl)cyclopropyl)methyl)azetidin-3-yl)methyl)-3,9-diazaspiro[5.5]undecane-3-carbonyl)-2-methoxyphenyl)dihydropyrimidine-2,4(1H,3H)-dione] as the molecule, how does the IC50 [3] read?
A: 1000 to 10000 nM

Q: What about the DC50 (KRAS-G12D) of the same molecule?
A: 1000 to 10000 nM

Q: What about the Dmax (KRAS-G12D) of the same molecule?
A: 30 to 50%

Q: What about the IC50 [4] of the same molecule?
A: 100 to 500 nM

Q: What about the IC50 ([5]; class symbols) of the same molecule?
A: ≤ 50 nM

Q: Which results are given for `C#Cc1c(F)ccc2cc(O)cc(-c3ncc4c(N5CC6CCC(C5)N6)nc(OCC5(CN6CCC(CN7CCC8(CC7)CCN(C(=O)c7ccc(OC)c(N9CCC(=O)NC9=O)c7)CC8)CC6)CC5)nc4c3F)c12` [Example 38, 1-(5-(9-((1-((1-(((4-(3,8-diazabicyclo[3.2.1]octan-3-yl)-7-(8-ethynyl-7-fluoro-3-hydroxynaphthalen-1-yl)-8-fluoropyrido[4,3-d]pyrimidin-2-yl)oxy)methyl)cyclopropyl)methyl)piperidin-4-yl)methyl)-3,9-diazaspiro[5.5]undecane-3-carbonyl)-2-methoxyphenyl)dihydropyrimidine-2,4(1H,3H)-dione]?
A: IC50 [3]: ≤ 50 nM; DC50 (KRAS-G12D): ≤ 50 nM; Dmax (KRAS-G12D): 80 to 100%; IC50 [4]: ≤ 50 nM; IC50 ([5]; class symbols): ≤ 50 nM

Q: `C#Cc1c(F)ccc2cc(O)cc(-c3ncc4c(N5CC6CCC(C5)N6)nc(OCC56CC(CN7CCN(CCC8CCC9(CC8)CCN(C(=O)c8ccc(Cl)c(N%10CCC(=O)NC%10=O)c8)CC9)CC7)(C5)C6)nc4c3F)c12` [Example 56, 1-(5-(9-(2-(4-((3-(((4-(3,8-diazabicyclo[3.2.1]octan-3-yl)-7-(8-ethynyl-7-fluoro-3-hydroxynaphthalen-1-yl)-8-fluoropyrido[4,3-d]pyrimidin-2-yl)oxy)methyl)bicyclo[1.1.1]pentan-1-yl)methyl)piperazin-1-yl)ethyl)-3-azaspiro[5.5]undecane-3-carbonyl)-2-chlorophenyl)dihydropyrimidine-2,4(1H,3H)-dione] was tested. Which IC50 [3] did it give?
A: 50 to 100 nM

Q: What about the DC50 (KRAS-G12D) of the same molecule?
A: ≤ 50 nM

Q: And the Dmax (KRAS-G12D)?
A: 50 to 80%

Q: What about the IC50 [4] of the same molecule?
A: ≤ 50 nM

Q: And the IC50 ([5]; class symbols)?
A: 50 to 100 nM

— patent US20260166159A1, “KRAS G12D DEGRADATION AGENT, AND PREPARATION METHOD AND USE THEREFOR” (LEADINGTAC PHARMACEUTICAL (SHAOXING) CO., LTD., priority 2022, published 2026)
